The record followed here is patent publication US11939290B2, “Heterocycle-containing amino acid compound and salt thereof, complex, composition, fertilizer and plant growth regulator” (TOKUSHIMA UNIVERSITY, priority 2018, dated 2024).

The series in a line: Stability test in acidic aqueous solution (1H NMR residual rate). Format: physicochemical. The following applies: for residual rate, lapsed day 0 / residual rate, lapsed day 10 / residual rate, lapsed day 20 / residual rate, lapsed day 27: acidic aqueous solution in heavy water; for residual rate, lapsed day 0: pH 2.0, 0 day (immediately after preparation); for residual rate, lapsed day 10 / residual rate, lapsed day 20 / residual rate, lapsed day 27: pH 2.0, stored at 25° C. sealed, protected from light; for residual rate, lapsed day 10: 10 days; for residual rate, lapsed day 20: 20 days; for residual rate, lapsed day 27 / stability in an acidic aqueous solution compared with derivatives (X), (X′) and (Y): 27 days; for stability in an acidic aqueous solution compared with derivatives (X), (X′) and (Y): acidic aqueous solution pH 2, 25° C. On the procedure:
In this stability test, whether acidic aqueous solutions prepared using the derivatives (X), (X′) and (Y), and 2′-deoxymugineic acid (DMA) and a compound having the following structure (hereinafter, referred to as “PDMA”) were stable along with the lapse of time, i.e., whether the derivatives were difficult to decompose was evaluated.
The following test solutions (a), (b) and (c) were prepared using the derivatives (X), (X′) and (Y). Also, the following test solutions (d) and (e) were prepared using DMA and PDMA. The test solution (a) was prepared by dissolving 3 μmol of the substance in 0.5 mL of heavy water. Other test solutions were prepared by dissolving 0.03 mmol of the substance in 0.5 mL of heavy water. The pH of the test solution was 2. • Test solution (a) for Test Example 1: acidic aqueous solution of the derivative (X) • Test solution (b) for Test Example 2: acidic aqueous solution of the derivative (X′) • Test solution (c) for Test Example 3: acidic aqueous solution of the derivative (Y) • Test solution (d) for Referential Example 1: acidic aqueous solution of DMA • Test solution (e) for Referential Example 2: acidic aqueous solution of PDMA
An NMR measuring tube (manufactured by Kanto Chemical Co., Inc., φ5 mm×7 inch) was filled with each of the test solutions (a) to (e), and ^1H NMR measurement was performed. ^1H NMR was measured immediately after (0 day), 10 days after, 20 days after, and 27 days after the preparation of the test solution. The test solutions were stored at room temperature (25° C.) in a sealed state in which they were placed in the NMR measuring tubes, while being protected from light.
Attention was paid to 4.4 ppm (1H, q) for DMA, 4.4 ppm (1H, q) for PDMA, 4.3 ppm (1H, dd) for the derivative (X), 4.3 ppm (1H, dd) for the derivative (X′), and 4.3 ppm (1H, dd) for the derivative (Y) in the resulting ^1H NMR spectrum. […] On the other hand, in the case of the test solutions (d) and (e), peaks derived from decomposition products of DMA and PDMA were detected with the lapse of the storage time. The chemical shifts of the peaks were 4.5 ppm (t, 1H) for DMA and 4.5 ppm (1H, t) for PDMA. Thus, from the integrated values, the residual rate of DMA or PDMA after 10, 20, and 27 days was calculated based on the following calculation formula (see Table 1 and FIG. 1):
(Integrated value of measured compound)/{(integrated value of measured compound)+(integrated value of decomposition product)}×100

As to `O=C(O)C(O)CCNC(CCN1CCCC1C(=O)O)C(=O)O` (stereo not shown) [PDMA], the “residual rate, lapsed day 0” value was determined as 100%; the “residual rate, lapsed day 10” value came out at 68.4%; the “residual rate, lapsed day 20” value was found to be 61.7%; the “residual rate, lapsed day 27” value was determined as 55.2%. Also, the “stability in an acidic aqueous solution compared with derivatives (X), (X′) and (Y)” value is reported as “inferior”.
The matching figures for `O=C(O)C(O)CCNC(CCN1CCC1C(=O)O)C(=O)O` (stereo not shown) [DMA, 2′-deoxymugineic acid]: 100%, 77.3%, 68.2%, 59.3% and “inferior”.
